Data as given in the supplement of paper PMC10307832.

The cell lines below were run with C(C(=O)C(=O)O)Br [Bromopyruvate] + C[C@]1(O)C[C@@H](c2nc(-c3ccc4ccc(-c5ccccc5)nc4c3)c3c(N)nccn32)C1 [Linsitinib] (partner 1 µM) (assay: relative viability (nuclei count vs DMSO), 5 days (fraction); higher = more cells survive). Details: first compound 1 µM.
How it was run: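 Lung cancer cell lines were seeded in 1536-well plates and dosed by pin tool the next day, with either a single drug or a fixed anchor-drug dose combined with five library-drug doses (not always all listed) spaced in √10 steps. Five days later, one step fixed the cells and stained their nuclei (final 0.05% Triton X-100, 1% formaldehyde, 1 ug/ml Hoechst), and nuclei were counted on 4× images. Relative viability is the nuclei count in treated wells divided by the count in vehicle wells, and each value is the median of duplicate plates.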
In the case of NCI-H1993, the relative viability is reported as 0.739.
PC-14 was tested, and the relative viability was 1.03.
LCLC-103H showed a relative viability of 1.28.
With NCI-H596 the relative viability was 0.998.
Cell Line NCI-H2228 has a relative viability of 0.81.
EMC-BAC-2 gave a relative viability of 0.716.
Cell Line NCI-H2087 has a relative viability of 0.856.
Work on Calu-6 yielded a relative viability of 0.889.
For HCC-366, the relative viability was 0.615.
In the case of NCI-H1666, the relative viability is reported as 0.736.
For NCI-H647, the relative viability was 1.03.
In the case of LK-2, the relative viability is reported as 0.474.
For NCI-H2126, the relative viability was 0.718.
For SK-MES-1, the relative viability was 1.07.
H3255 showed a relative viability of 0.945.
COR-L23 was tested, and the relative viability was 0.906.
For COR-L 105, the relative viability was 0.943.
IA-LM was tested, and the relative viability was 0.534.
In the case of LOU-NH91, the relative viability is reported as 0.89.
In the case of NCI-H3122, the relative viability is reported as 1.02.
Cell Line HOP-62 has a relative viability of 1.04.
HCC-44 showed a relative viability of 0.612.
Cell Line LU99A has a relative viability of 0.567.
BEN gave a relative viability of 0.97.
NCI-H441 was tested, and the relative viability was 0.533.
In the case of NCI-H1395, the relative viability is reported as 1.36.
Cell Line NCI-H1299 has a relative viability of 0.994.
NCI-H1793 gave a relative viability of 0.706.

Same assay, conditions: first compound 3.162 µM
NCI-H838 gave a relative viability of 1.05.
EBC-1 was tested, and the relative viability was 0.963.
NCI-H1703 gave a relative viability of 1.08.
With NCI-H2009 the relative viability was 1.25.
NCI-H1993 was tested, and the relative viability was 0.678.
Work on PC-14 yielded a relative viability of 1.01.
For LCLC-103H, the relative viability was 1.07.
In the case of NCI-H596, the relative viability is reported as 0.991.
With NCI-H2228 the relative viability was 0.837.
EMC-BAC-2 was tested, and the relative viability was 0.825.
For NCI-H2087, the relative viability was 1.04.
In the case of Calu-6, the relative viability is reported as 1.04.
In the case of HCC-366, the relative viability is reported as 0.848.
For NCI-H1666, the relative viability was 0.764.
With NCI-H647 the relative viability was 1.48.
Cell Line LK-2 has a relative viability of 0.674.
NCI-H2126 was tested, and the relative viability was 0.693.
SK-MES-1 showed a relative viability of 1.05.
In the case of H3255, the relative viability is reported as 1.02.
In the case of COR-L23, the relative viability is reported as 0.843.
COR-L 105 gave a relative viability of 0.898.
IA-LM showed a relative viability of 0.576.
With LOU-NH91 the relative viability was 0.964.
Cell Line NCI-H3122 has a relative viability of 1.02.
HOP-62 gave a relative viability of 1.02.
Cell Line HCC-44 has a relative viability of 0.662.
A549 was tested, and the relative viability was 0.607.
In the case of LU99A, the relative viability is reported as 0.563.
In the case of BEN, the relative viability is reported as 0.869.
With NCI-H441 the relative viability was 0.656.
NCI-H1395 gave a relative viability of 1.29.
NCI-H1299 was tested, and the relative viability was 1.01.
Cell Line NCI-H1793 has a relative viability of 0.8.

Same assay, conditions: first compound 10 µM
Cell Line NCI-H838 has a relative viability of 1.23.
EBC-1 was tested, and the relative viability was 0.994.
For NCI-H1703, the relative viability was 0.709.
Work on NCI-H2009 yielded a relative viability of 1.22.
For NCI-H1993, the relative viability was 0.707.
PC-14 gave a relative viability of 0.938.
Cell Line LCLC-103H has a relative viability of 1.
For NCI-H596, the relative viability was 1.18.
For NCI-H2228, the relative viability was 0.693.
For EMC-BAC-2, the relative viability was 0.9.
Work on NCI-H2087 yielded a relative viability of 0.932.
Calu-6 gave a relative viability of 1.09.
Cell Line HCC-366 has a relative viability of 0.765.
Cell Line NCI-H1666 has a relative viability of 0.783.
NCI-H647 was tested, and the relative viability was 1.55.
For LK-2, the relative viability was 0.541.
With NCI-H2126 the relative viability was 0.697.
Work on SK-MES-1 yielded a relative viability of 1.08.
H3255 showed a relative viability of 0.997.
COR-L23 gave a relative viability of 1.
COR-L 105 showed a relative viability of 0.838.
Cell Line IA-LM has a relative viability of 0.675.
With LOU-NH91 the relative viability was 0.944.
NCI-H3122 was tested, and the relative viability was 1.03.
Work on HCC-44 yielded a relative viability of 0.729.
Work on A549 yielded a relative viability of 0.754.
LU99A was tested, and the relative viability was 0.552.
For BEN, the relative viability was 0.932.
In the case of NCI-H441, the relative viability is reported as 0.543.
For NCI-H1395, the relative viability was 1.09.
Work on NCI-H1299 yielded a relative viability of 1.04.
With NCI-H1793 the relative viability was 1.16.

Same assay, conditions: first compound 31.62 µM
NCI-H838 gave a relative viability of 1.02.
EBC-1 gave a relative viability of 0.905.
In the case of NCI-H1703, the relative viability is reported as 0.678.
Work on NCI-H2009 yielded a relative viability of 1.1.
Work on NCI-H1993 yielded a relative viability of 0.717.
Cell Line PC-14 has a relative viability of 0.944.
Cell Line LCLC-103H has a relative viability of 1.08.
Cell Line NCI-H596 has a relative viability of 1.03.
In the case of NCI-H2228, the relative viability is reported as 0.535.
EMC-BAC-2 gave a relative viability of 0.838.
For NCI-H2087, the relative viability was 0.954.
Work on Calu-6 yielded a relative viability of 0.926.
With HCC-366 the relative viability was 0.769.
With NCI-H1666 the relative viability was 0.744.
NCI-H647 showed a relative viability of 1.15.
In the case of LK-2, the relative viability is reported as 0.509.
For NCI-H2126, the relative viability was 0.701.
Cell Line SK-MES-1 has a relative viability of 0.941.
Work on H3255 yielded a relative viability of 0.967.
Cell Line COR-L23 has a relative viability of 0.889.
Work on COR-L 105 yielded a relative viability of 0.736.
For IA-LM, the relative viability was 0.674.
For LOU-NH91, the relative viability was 1.04.
With NCI-H3122 the relative viability was 0.987.
HOP-62 gave a relative viability of 0.368.
Cell Line HCC-44 has a relative viability of 0.753.
With A549 the relative viability was 0.687.
In the case of LU99A, the relative viability is reported as 0.614.
Work on BEN yielded a relative viability of 0.929.
NCI-H441 showed a relative viability of 0.507.
In the case of NCI-H1395, the relative viability is reported as 1.2.
Work on NCI-H1299 yielded a relative viability of 1.02.
NCI-H1793 showed a relative viability of 0.844.

Same assay, conditions: first compound 100 µM
Work on NCI-H838 yielded a relative viability of 1.1.
In the case of EBC-1, the relative viability is reported as 0.93.
Work on NCI-H1703 yielded a relative viability of 0.655.
For NCI-H2009, the relative viability was 0.97.
Work on NCI-H1993 yielded a relative viability of 0.7.
PC-14 showed a relative viability of 1.04.
In the case of LCLC-103H, the relative viability is reported as 1.14.
For NCI-H596, the relative viability was 1.19.
In the case of NCI-H2228, the relative viability is reported as 0.505.
In the case of EMC-BAC-2, the relative viability is reported as 0.887.
With NCI-H2087 the relative viability was 0.959.
Calu-6 was tested, and the relative viability was 0.958.
With HCC-366 the relative viability was 0.54.
Cell Line NCI-H1666 has a relative viability of 0.86.
Work on NCI-H647 yielded a relative viability of 0.806.
LK-2 was tested, and the relative viability was 0.524.
Cell Line NCI-H2126 has a relative viability of 0.753.
For SK-MES-1, the relative viability was 1.06.
H3255 was tested, and the relative viability was 1.1.
COR-L23 was tested, and the relative viability was 0.451.
COR-L 105 showed a relative viability of 0.702.
In the case of IA-LM, the relative viability is reported as 0.674.
In the case of LOU-NH91, the relative viability is reported as 1.1.
NCI-H3122 showed a relative viability of 0.941.
For HOP-62, the relative viability was 0.24.
HCC-44 showed a relative viability of 0.713.
In the case of A549, the relative viability is reported as 0.696.
LU99A gave a relative viability of 0.511.
Work on BEN yielded a relative viability of 0.936.
With NCI-H441 the relative viability was 0.518.
Work on NCI-H1395 yielded a relative viability of 1.17.
For NCI-H1299, the relative viability was 0.968.
NCI-H1793 showed a relative viability of 1.06.
